In PubChem BioAssay (NCI) one finds TGI data, which are given here for 16 molecules.

Common to all, as to experiment: growth of human tumour cells (NCI), 48 h
Test [1] concerns UO-31 renal.
For test [2], the system named is ACHN renal.
Test [3] concerns NCI-H226 lung.
Test [4] has as its system OVCAR-8 ovarian.
In test [5] the test system is SF-539 CNS.
Test [6] has as its system TK-10 renal.
Test [7] concerns CCRF-CEM leukemia.
The test system of test [8] is SK-MEL-28 melanoma.
In test [9] the test system is BT-549 breast.

The structures appear in SMILES notation.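 In this assay, cells in 96-well plates receive the compound at five concentrations for 48 hours. Endpoints are linearly interpolated between the surrounding concentrations. TGI denotes the concentration required for complete inhibition of growth.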 Some results are limits rather than exact numbers.

`Cc1ccc(Sc2cc([N+](=O)[O-])cc(Sc3ccc(C)cc3)c2Sc2ccc(C)cc2)cc1`: the TGI in test [1], in test [2], in [3], in test [4], in test [5] and in test [6] was above 100 µM throughout. In test [7], the TGI is 65.4 µM.

On to `O=C1OC(=O)C2C1C1(c3ccccc3)OC2(c2ccccc2)c2c(Br)c(Br)c(Br)c(Br)c21` (stereo unspecified), for which the TGI in [1], in test [3], in test [4], in [5], in [6] and in [7] was above 100 µM in each case.

Consider `CCCCCCCCCCCCCCCc1nc(SCC(=O)O)n[nH]1`, for which the TGI in test [1], in test [2], in test [8], in test [4], in [5] and in [6] was above 100 µM in each case. For the same molecule, the TGI in [7] was above 100 µM.

Take `CC(=O)NC1C(OCc2ccccc2)OC(COC(=O)CCCCCCCCCCNC(=O)CCNc2ccc([N+](=O)[O-])c3[nH]c4ccc(O)cc4c(=O)c23)C(O)C1OC(C)C(=O)N[C@H](C(=O)N[C@H](CCC(=O)O)C(N)=O)C(C)C` (stereo partly specified): the TGI in [1], in test [2], in test [8], in test [3], in test [4] and in test [5] was above 100 µM each time. Further, the TGI was above 100 µM in [6] and 82.5 µM in test [7].

As to `NC1=C(O)/C(=N/NS(=O)(=O)c2ccccc2)C(c2cccc(Cl)c2)O1` (stereo unspecified), the TGI was 33.5 µM in [1]; above 84.1 µM in [2]; 46.2 µM in test [8]; above 90.9 µM in test [3]; above 67.8 µM in test [4]; above 100 µM in test [9]. Besides, the TGI is above 81.8 µM in test [5], above 95.8 µM in test [6] and 12 µM in [7].

On to `CN(CC(=O)O)Cc1c[nH]c2ccccc12`, for which the TGI in test [1], in [2], in test [8], in [3], in test [4] and in [9] was above 100 µM throughout. For the same molecule, the TGI in [5], in test [6] and in test [7] was above 100 µM throughout.

Turning to `O=c1c2ccc(Br)cc2nc(-c2ccccc2)n1NC1OC(CO)C(O)C(O)C1O` (stereo unspecified), the TGI in [1], in test [2], in test [8], in test [3], in test [4] and in [5] was above 100 µM each time. The TGI in test [6] and in test [7] was above 100 µM throughout.

As for `Cn1c(=O)c2nc3sc4ccccc4c(=N)n3c2n(C)c1=O`, the TGI in [1], in test [2], in test [8], in test [3], in [4] and in test [5] was above 100 µM in each case. The TGI in test [6] and in test [7] was above 100 µM each time.

In the case of `COc1ccc(/C=C\c2cc(OC)c(OC(C)=O)c(OC)c2)cc1`, the TGI was 50.1 µM in test [1]; above 100 µM in [2]; 26.2 µM in test [8]; above 100 µM in test [3]; 76.7 µM in test [4]; 14.9 µM in test [5]. In addition, the TGI in test [7] is 57.3 µM.

Regarding `COc1ccc2c(c1)[n+](=O)c(C(=O)C/C(=N\NC(=O)C[N+](C)(C)C)C(=O)Nc1cc(Cl)ccc1Cl)c(C)n2O`, the TGI in [1], in test [2], in [8], in test [3], in test [4] and in test [5] was above 100 µM each time. Further, the TGI in test [6] and in test [7] was above 100 µM throughout.

Take `COc1cccc(/C=N/[N-]C(N)=O)c1[O-].[Cu+2].c1ccncc1`: the TGI in test [1] is 44.3 µM; in [2] it was above 100 µM; in test [8], 33.9 µM; in [3], 44.6 µM; in [4], 86.1 µM; in [5] it was 54.2 µM. The same molecule came in with a TGI in test [7] of 56.2 µM.

As for `O=C(c1ccccc1)C(c1ccccc1)C1(O)C(=O)Nc2ccc(Br)cc21` (stereo unspecified), the TGI in test [1], in test [2], in test [8], in test [3], in test [4] and in test [5] was above 100 µM in each case. The figures for the TGI in test [6] and in test [7] were above 100 µM and 47.7 µM, respectively.

Take `Cn1c(=O)ccc2cc(C(=O)c3ccccc3)ccc21`: the TGI in test [2] was above 100 µM; in test [8], above 100 µM; in test [3] it was 99.7 µM; in [4], above 100 µM; in [5] it was above 100 µM; in test [6], above 100 µM. The molecule also gave a TGI in test [7] above 100 µM.

As to `CCn1cc(C(=O)O)c(=O)c2cc(F)c(N3CCNCC3)nc21`, the TGI in [1], in [2], in [8], in test [3], in [4] and in test [5] was above 100 µM in each case. Moreover, the TGI in test [6] and in test [7] was above 100 µM each time.

As for `CCOC(=O)/C(C#N)=C/c1[nH]c(C)c(C)c1C`, the TGI in test [1], in test [3], in [4], in [5], in [6] and in test [7] was above 100 µM in each case.

As to `O=C1C2Cc3ccccc3CN2C(=O)N1CCN1CCOCC1` (stereo unspecified), the TGI in test [1], in [2], in test [8], in [3], in test [4] and in test [5] was above 100 µM in each case. Moreover, the TGI in [6] and in [7] was above 100 µM in each case.
